Laboratory results published in patent publication US20240033236A1, “METHODS OF TREATING HERPES VIRAL INFECTION WITH 4-PHENYLBUTYRATE (PBA) OR A PHARMACEUTICALLY ACCEPTABLE SALT THEREOF” (THE BOARD OF TRUSTEES OF THE UNIVERSITY OF ILLINOIS, priority 2020, published 2024).
Entries after “also recorded” stand apart in the source; their conditions may differ.

Tests used:
[1] = tested on: HSV-1; test: Plaque assay of HSV-1 infected HCEs treated with ER stress modulators; settings: 0.1 MOI HSV-1 K26RFP, 24 hpi, tunicamycin, thapsigargin, Brefeldin-A 1 μM, salubrinal 75 μM, PBA 10 mM
Experimental: Infected cells suspended in 5004 of Opti-MEM prior to sonication using a probe sonication system at 70% amplitude for 30 seconds. Sonicated cell lysates or ocular/vaginal swabs were used as inoculants for a plaque assay to determine the total amount of infectious virus. In a typical experiment, Vero cells were plated at a seating density of 5×10^4 per well in a 24 well plate overnight. Upon confluency, the cell monolayers were washed with PBS and infected samples were overlaid for a period of 2 h at multiple dilutions. The cells were then washed twice with PBS prior to the addition of DMEM mixed with 0.5% methylcellulose. The plates were incubated for 72 h at 37° C. and 5% CO2 before they were fixed with methanol and stained with crystal violet to determine the extent of plaque formation.
HCEs were infected with 0.1 MOI HSV-1 K26RFP and treated with tunicamycin (1 μM), thapsigargin (1 μM), Brefeldin-A (1 μM), salubrinal (75 μM) or PBA (10 mM). At 24 hpi, cells were imaged for the presence of fluorescent HSV-1 and cells were lysed and used as inoculum on Vero cells to assess viral titer via plaque assay (FIGS. 3A and 3B). […] HCEs infected and treated with PBA with various concentrations were collected 24 hpi and the lysates from these cells were used as inoculum on Vero cells to determine a concentration dependent viral inhibition via a plaque assay (FIG. 3E).

[2] = tested on: HSV-1 McKrae; test: Murine HSV-1 encephalitis model (intranasal infection); type: in vivo; settings: BALB/C mice, intranasal HSV-1 McKrae, compared with untreated
[3] = in vivo, iv; cited from earlier work
[4] = tested on: HSV-1 infected HCEs; test: Survival and syncytia of HSV-1 infected HCEs in cell culture; type: cell-based, human
[5] = in vivo; cited from earlier work
[6] = tested on: HSV; test: Viral protein synthesis in HSV infected cells (immunoblotting); settings: in vitro
Experimental: Cells were scraped and incubated with 1004 of Radioimmunoprecipitation assay (RIPA) buffer with protease phosphatase inhibitor cocktail (Halt™, 78440) for a period of 30 minutes on ice. Whole cell protein extracts (supernatant) were collected by centrifuging the mixture at 13,500 rpm on a bench top refrigerated (4° C.) centrifuge for 15 minutes. Protein samples were then denatured in NuPAGE LDS Sample Buffer (Invitrogen, NP00007) and 6-mercaptoethanol by heating them to 80° C. for 10 min. The denatured protein samples were allowed to cool and equal amounts of protein were added to 4-12% SDS-PAGE loading gels and run at a constant speed of 70V for 3 h. The protein from the gel was then transferred to a nitrocellulose membrane using an iBlot 2 dry transfer machine (Thermofisher Scientific, USA). Nitrocellulose membrane was blocked in 5% nonfat milk/BSA in tris buffer saline (TBS) and 0.1% tween 20 (TBST) for 1 h at room temperature. After the blocking step, membranes were incubated with primary antibody at dilutions of 1:1000 overnight at 4° C. The following day the blots were washed multiple times with TBST before the addition of horse radish peroxidase conjugated secondary IgG antibody at dilutions of 1:10,000 at room temperature. […] The density of the bands was quantified using ImageQuant TL image analysis software (version: 7). GAPDH was measured as a loading control.

## C[C@H]1CCC/C=C/[C@@H]2C[C@H](O)C[C@H]2[C@H](O)/C=C/C(=O)O1 [BA, Brefeldin-A]
[1]
  viral replication / viral infection in HSV-1 infected HCEs: inhibited viral replication

## Nc1nc2c(ncn2COCCO)c(=O)[nH]1 [ACV, acyclovir]
[2]
  appearance and behavior of infected mice: look healthier with no behavioral changes
[3]
  renal toxicity: renal toxicity including acute kidney injury

## O=C(/C=C/c1ccccc1)NC(NC(=S)Nc1cccc2cccnc12)C(Cl)(Cl)Cl (stereo not drawn) [salubrinal]
[4]
  survival of the HSV-1 infected cell: form large syncytia and survive longer in cell culture; also recorded: increased survival of the cell
[1]
  viral replication / viral infection in HSV-1 infected HCEs: increased viral replication

## C/C=C(/C)C(=O)O[C@H]1C(C)=C2[C@H]([C@@H]1OC(=O)CCCCCCC)[C@@](C)(OC(C)=O)C[C@H](OC(=O)CCC)[C@@]1(O)[C@H]2OC(=O)[C@@]1(C)O [TG, Thapsigargin]
[1]
  viral replication / viral infection in HSV-1 infected HCEs: inhibited viral replication

## O=c1[nH]c(=O)n([C@H]2C[C@H](O)[C@@H](CO)O2)cc1C(F)(F)F [TFT, trifluridine]
[5]
  corneal toxicity: corneal toxicity including inflammation, dryness and pain

## Tunicamycin [TM]
[1]
  viral replication / viral infection in HSV-1 infected HCEs: inhibited viral replication

## O=C([O-])CCCc1ccccc1.[Na+] [NaPBA, sodium 4-phenylbutanoate]
[6]
  viral protein synthesis: suppressed viral protein synthesis
